Results from article PMC12035807 (2025).

Experiments:
[1] = tested on: 5'-Cy5-Ba SAM-VI riboswitch (RNA, riboswitch) GGCAUUGUGCCUCGCAUUGCACUCCGCGGGGCGAUAAGUCCUGAAAAGGGAUGUC; experiment: MST; conditions: 100 mM KCl, 25 mM MgCl2, 50 mM Tris-HCl pH 7.5, 2% DMSO
[2] = tested on: Ba SAM-VI riboswitch (label-free, IVT) (RNA, riboswitch) GGCAUUGUGCCUCGCAUUGCACUCCGCGGGGCGAUAAGUCCUGAAAAGGGAUGUC; experiment: ITC; conditions: 50 mM KCl, 10 mM MgCl2; 40 mM HEPES pH 7.0, 25 °C, 0.2% DMSO
[3] = tested on: 5'-Cy5-Tte preQ1 riboswitch (RNA, riboswitch) CUGGGUCGCAGUAACCCCAGUUAACAAAACAAG; experiment: MST; conditions: 100 mM KCl, 25 mM MgCl2, 50 mM Tris-HCl pH 7.5, 2% DMSO
[4] = tested on: 5'-Biotin-Ba SAM-VI riboswitch (RNA, riboswitch) GGCAUUGUGCCUCGCAUUGCACUCCGCGGGGCGAUAAGUCCUGAAAAGGGAUGUC; experiment: SPR, 1:1 kinetic fit; conditions: 150 mM NaCl, 6 mM MgCl2; 50 mM HEPES pH 7.0, 25 °C
[5] = tested on: Tte preQ1 riboswitch (not labelled) (RNA, riboswitch) CUGGGUCGCAGUAACCCCAGUUAACAAAACAAG; experiment: ITC; conditions: 100 mM NaCl, 6 mM MgCl2, 50 mM HEPES pH 7.0, 25 °C; for KD: 0.2% DMSO; for binding: loose binding in SPR
[6] = tested on: 5'-Biotin-Tte preQ1 riboswitch (RNA, riboswitch) CUGGGUCGCAGUAACCCCAGUUAACAAAACAAG; experiment: SPR, 1:1 kinetic fit; conditions: 150 mM NaCl, 6 mM MgCl2, 50 mM HEPES pH 7.0, 25 °C
[7] = tested on: 5'-Biotin-Tte preQ1 riboswitch (RNA, riboswitch) CUGGGUCGCAGUAACCCCAGUUAACAAAACAAG; experiment: SPR, Interaction Map analysis; conditions: 150 mM NaCl, 6 mM MgCl2; 50 mM HEPES pH 7.0, 25 °C, 2% DMSO
[8] = tested on: 5'-Biotin-Tte preQ1 riboswitch (RNA, riboswitch) CUGGGUCGCAGUAACCCCAGUUAACAAAACAAG; experiment: SPR; conditions: 150 mM NaCl, 6 mM MgCl2; 50 mM HEPES pH 7.0, 25 °C; loose unspecific, no saturation to 50 µM, KD not determinable

| SMILES | KD [2] [mM] | binding ([3]; up to 1 mM) | KD [4] [nM] | binding ([1]; up to 1 mM) | other results |
| --- | --- | --- | --- | --- | --- |
| C[S+](CC[C@H](N)C(=O)O)C[C@H]1O[C@@H](n2cnc3c(N)ncnc32)[C@H](O)[C@@H]1O (some centres unmarked) | 0.000671 ± 5.9e-05 | no | 3720 ± 410 |  | KD ([1]; 20 nM RNA): 0.718 ± 0.399 × 10^-6 M |
| N#Cc1c[nH]c2nc(N)[nH]c(=O)c12 |  |  |  | no | binding ([3]; 20 nM RNA): yes; KD [5]: 85.4 ± 3.3 nM; KD ([6]; 2% DMSO): 74.0 ± 29.4 nM; KD [7]: 134 nM |
| NCCCCNCCCNCCOc1ccc2[nH]c3ccccc3c2c1 |  |  |  | no | binding ([5]; RNA 15 µM, ligand 150 µM): no |
| NCCCCNCCCNCCOc1ccc2oc3ccccc3c2c1 |  |  |  | no | binding ([5]; RNA 15 µM, ligand 150 µM): no |
| NCCCNCCOc1ccc2[nH]c3ccccc3c2c1 |  |  |  | no | binding ([5]; RNA 30 µM, ligand 300 µM): no |
| NCCCNCCOc1ccc2oc3ccccc3c2c1 |  |  |  | no | binding ([5]; RNA 30 µM, ligand 300 µM): no |
| NCCCNC[C@H]1O[C@@H](n2cnc3c(N)ncnc32)[C@H](O)[C@@H]1O | 0.00173 ± 0.00051 | no | 4170 ± 1560 |  | binding ([1]; 20 nM RNA): yes; binding [8]: weak |
| NCCOc1ccc2[nH]c3ccccc3c2c1 |  |  |  | no | binding ([5]; RNA 15 µM, ligand 150 µM): no |
| NCCOc1ccc2oc3ccccc3c2c1 |  |  |  | no | binding ([5]; RNA 30 µM, ligand 300 µM): no |
| NCc1c[nH]c2nc(N)[nH]c(=O)c12 |  |  |  | no | binding ([3]; 20 nM RNA): yes; KD [5]: 23.1 ± 7.4 nM; KD ([6]; one representative sensorgram, replicates 18.5-47.4, mean not in material): 19.1 nM |
| Nc1ncnc2c1ncn2[C@@H]1O[C@H](CNCC[C@H](N)C(=O)O)[C@@H](O)[C@H]1O | 0.00331 ± 0.00021 | no | 12300 ± 1300 |  | KD ([1]; 20 nM RNA): 33.3 µM |
| Nc1ncnc2c1ncn2[C@@H]1O[C@H](CSCC[C@H](N)C(=O)O)[C@@H](O)[C@H]1O | 0.014 ± 0.0042 | no | 150000 ± 39000 |  | KD ([1]; 20 nM RNA): 34.4 ± 12.0 × 10^-6 M |
